Source: ChEMBL document CHEMBL4507300 (2021)

Experiments:
[1] = target: Casein kinase I isoform epsilon (Homo sapiens) (UniProt P49674); conditions: Compound concentration 1000.0 nM
[2] = target: RAC-alpha serine/threonine-protein kinase (Homo sapiens) (UniProt P31749); conditions: Compound concentration 1000.0 nM
[3] = target: 1-phosphatidylinositol 3-phosphate 5-kinase (Homo sapiens) (UniProt Q9Y2I7); conditions: Compound concentration 1000.0 nM
[4] = test system: Receptor-type tyrosine-protein kinase FLT3 (Homo sapiens), P36888 [UNDEFINED MUTATION]; conditions: Compound concentration 1000.0 nM
[5] = target: 5-hydroxytryptamine receptor 3A (Homo sapiens) (UniProt P46098); conditions: Compound concentration 10.0 uM
[6] = test system: Tyrosine-protein kinase ABL1 (Homo sapiens), P00519 [E255K]; conditions: Compound concentration 1000.0 nM
[7] = target: Phosphatidylinositol 4,5-bisphosphate 3-kinase catalytic subunit delta isoform (Homo sapiens) (UniProt O00329); conditions: Compound concentration 1000.0 nM
[8] = target: Cyclin-dependent kinase 2 (Homo sapiens) (UniProt P24941); conditions: Compound concentration 1000.0 nM
[9] = test system: Receptor-type tyrosine-protein kinase FLT3 (Homo sapiens), P36888 [R834Q]; conditions: Compound concentration 1000.0 nM
[10] = target: 5-hydroxytryptamine receptor 2B (Homo sapiens, UniProt P41595); conditions: Compound concentration 10.0 uM
[11] = target: Mitogen-activated protein kinase kinase kinase 2 (Homo sapiens) (UniProt Q9Y2U5); conditions: Compound concentration 1000.0 nM
[12] = target: Phosphatidylinositol 4-kinase beta (Homo sapiens) (UniProt Q9UBF8); conditions: Compound concentration 1000.0 nM
[13] = target: Serine/threonine-protein kinase tousled-like 2 (Homo sapiens) (UniProt Q86UE8); conditions: Compound concentration 1000.0 nM
[14] = target: Alpha-2A adrenergic receptor (Homo sapiens) (UniProt P08913); conditions: Compound concentration 10.0 uM
[15] = target: Tyrosine-protein kinase Yes (Homo sapiens) (UniProt P07947); conditions: Compound concentration 1000.0 nM
[16] = target: MAP kinase-interacting serine/threonine-protein kinase 2 (Homo sapiens) (UniProt Q9HBH9); conditions: Compound concentration 1000.0 nM
[17] = target: Homeodomain-interacting protein kinase 1 (Homo sapiens) (UniProt Q86Z02); conditions: Compound concentration 1000.0 nM
[18] = target: Receptor tyrosine-protein kinase erbB-4 (Homo sapiens) (UniProt Q15303); conditions: Compound concentration 1000.0 nM
[19] = target: Ephrin type-B receptor 4 (Homo sapiens) (UniProt P54760); conditions: Compound concentration 1000.0 nM
[20] = target: Dual specificity tyrosine-phosphorylation-regulated kinase 1B (Homo sapiens) (UniProt Q9Y463); conditions: Compound concentration 1000.0 nM
[21] = target: Serine/threonine-protein kinase MAK (Homo sapiens) (UniProt P20794); conditions: Compound concentration 1000.0 nM
[22] = target: Mitogen-activated protein kinase 1 (Homo sapiens) (UniProt P28482); conditions: Compound concentration 1000.0 nM
[23] = target: Serine/threonine-protein kinase TAO3 (Homo sapiens) (UniProt Q9H2K8); conditions: Compound concentration 1000.0 nM
[24] = target: Serine/threonine-protein kinase RIO2 (Homo sapiens) (UniProt Q9BVS4); conditions: Compound concentration 1000.0 nM
[25] = target: 3-phosphoinositide-dependent protein kinase 1 (Homo sapiens) (UniProt O15530); conditions: Compound concentration 1000.0 nM
[26] = target: cGMP-dependent protein kinase 1 (Homo sapiens) (UniProt Q13976); conditions: Compound concentration 1000.0 nM
[27] = target: Mitogen-activated protein kinase kinase kinase kinase 3 (Homo sapiens) (UniProt Q8IVH8); conditions: Compound concentration 1000.0 nM
[28] = test system: Tyrosine-protein kinase ABL1 (Homo sapiens), P00519 [T315I]; conditions: Compound concentration 1000.0 nM
[29] = target: Serine/threonine-protein kinase Nek6 (Homo sapiens) (UniProt Q9HC98); conditions: Compound concentration 1000.0 nM
[30] = target: Phosphatidylinositol 3-kinase C2 domain-containing subunit gamma (Homo sapiens) (UniProt O75747); conditions: Compound concentration 1000.0 nM
[31] = target: GABA-A receptor; anion channel (Rattus norvegicus) (UniProt O09028+P15431+P18506+P18508+P19969+P20236+P23574+P23576+P28471+P28473+P30191+P62813+P63079+P63138+Q91ZM7+Q9ES14); conditions: Compound concentration 10.0 uM
[32] = target: Mitogen-activated protein kinase kinase kinase 14 (Homo sapiens) (UniProt Q99558); conditions: Compound concentration 1000.0 nM
[33] = target: Serine/threonine-protein kinase PLK1 (Homo sapiens) (UniProt P53350); conditions: Compound concentration 1000.0 nM
[34] = target: Myosin light chain kinase 2, skeletal/cardiac muscle (Homo sapiens) (UniProt Q9H1R3); conditions: Compound concentration 1000.0 nM
[35] = test system: Tyrosine-protein kinase ABL1 (Homo sapiens), P00519 [H396P]; conditions: Compound concentration 1000.0 nM
[36] = target: Serine/threonine-protein kinase 26 (Homo sapiens) (UniProt Q9P289); conditions: Compound concentration 1000.0 nM
[37] = target: Serine/threonine-protein kinase TAO1 (Homo sapiens) (UniProt Q7L7X3); conditions: Compound concentration 1000.0 nM
[38] = target: Glycogen synthase kinase-3 alpha (Homo sapiens) (UniProt P49840); conditions: Compound concentration 1000.0 nM
[39] = target: Rho-associated protein kinase 1 (Homo sapiens) (UniProt Q13464); conditions: Compound concentration 1000.0 nM
[40] = target: Calcium/calmodulin-dependent protein kinase type IV (Homo sapiens) (UniProt Q16566); conditions: Compound concentration 1000.0 nM
[41] = target: Myosin light chain kinase, smooth muscle (Homo sapiens) (UniProt Q15746); conditions: Compound concentration 1000.0 nM
[42] = target: Rhodopsin kinase GRK7 (Homo sapiens) (UniProt Q8WTQ7); conditions: Compound concentration 1000.0 nM
[43] = target: Serine/threonine-protein kinase 25 (Homo sapiens) (UniProt O00506); conditions: Compound concentration 1000.0 nM

Serine/threonine-protein kinase RIO2 (Homo sapiens), sequence (Q9BVS4 whole entry, looked up): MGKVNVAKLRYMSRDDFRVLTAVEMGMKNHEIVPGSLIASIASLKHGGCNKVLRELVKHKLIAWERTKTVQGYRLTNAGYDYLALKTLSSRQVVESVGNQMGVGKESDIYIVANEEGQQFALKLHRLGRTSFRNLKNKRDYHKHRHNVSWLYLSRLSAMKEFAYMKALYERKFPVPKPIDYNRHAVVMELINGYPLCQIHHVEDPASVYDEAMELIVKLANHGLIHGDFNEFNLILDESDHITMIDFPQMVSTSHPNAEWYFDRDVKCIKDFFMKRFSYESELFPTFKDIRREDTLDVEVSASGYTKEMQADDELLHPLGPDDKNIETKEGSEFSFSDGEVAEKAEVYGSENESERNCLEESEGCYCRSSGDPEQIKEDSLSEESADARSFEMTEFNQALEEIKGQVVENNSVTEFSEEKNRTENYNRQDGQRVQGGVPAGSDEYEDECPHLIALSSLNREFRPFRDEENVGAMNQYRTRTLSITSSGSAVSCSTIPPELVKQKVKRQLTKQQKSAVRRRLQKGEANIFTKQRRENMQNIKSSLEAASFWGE
3-phosphoinositide-dependent protein kinase 1 (Homo sapiens), sequence (O15530 whole entry): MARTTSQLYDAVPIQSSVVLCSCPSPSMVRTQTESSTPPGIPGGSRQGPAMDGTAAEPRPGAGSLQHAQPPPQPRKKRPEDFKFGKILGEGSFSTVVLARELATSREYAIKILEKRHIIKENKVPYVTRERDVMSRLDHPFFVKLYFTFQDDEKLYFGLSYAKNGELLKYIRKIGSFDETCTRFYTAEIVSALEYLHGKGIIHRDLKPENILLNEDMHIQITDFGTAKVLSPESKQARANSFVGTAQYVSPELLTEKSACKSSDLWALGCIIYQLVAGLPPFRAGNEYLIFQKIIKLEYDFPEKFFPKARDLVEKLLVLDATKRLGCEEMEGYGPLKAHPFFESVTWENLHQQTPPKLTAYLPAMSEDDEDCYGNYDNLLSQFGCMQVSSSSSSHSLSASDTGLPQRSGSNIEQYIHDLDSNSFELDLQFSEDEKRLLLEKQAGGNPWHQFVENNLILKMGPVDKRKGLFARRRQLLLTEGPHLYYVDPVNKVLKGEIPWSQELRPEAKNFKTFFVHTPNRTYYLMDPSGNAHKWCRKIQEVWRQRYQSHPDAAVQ
RAC-alpha serine/threonine-protein kinase (Homo sapiens), sequence (P31749 whole entry): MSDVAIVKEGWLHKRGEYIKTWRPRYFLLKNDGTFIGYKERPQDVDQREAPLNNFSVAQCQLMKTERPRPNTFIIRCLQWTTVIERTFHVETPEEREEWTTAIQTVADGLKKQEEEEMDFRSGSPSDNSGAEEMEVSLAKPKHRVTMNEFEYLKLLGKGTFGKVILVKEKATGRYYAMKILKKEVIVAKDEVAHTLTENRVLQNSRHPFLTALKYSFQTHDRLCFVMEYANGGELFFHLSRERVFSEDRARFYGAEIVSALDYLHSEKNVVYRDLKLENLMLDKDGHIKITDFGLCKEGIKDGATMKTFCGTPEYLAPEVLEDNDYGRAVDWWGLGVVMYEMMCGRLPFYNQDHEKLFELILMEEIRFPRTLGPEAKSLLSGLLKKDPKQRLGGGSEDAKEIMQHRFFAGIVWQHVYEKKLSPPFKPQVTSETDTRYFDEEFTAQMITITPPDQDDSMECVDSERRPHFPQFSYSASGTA
Mitogen-activated protein kinase kinase kinase 2 (Homo sapiens), sequence (Q9Y2U5 whole entry): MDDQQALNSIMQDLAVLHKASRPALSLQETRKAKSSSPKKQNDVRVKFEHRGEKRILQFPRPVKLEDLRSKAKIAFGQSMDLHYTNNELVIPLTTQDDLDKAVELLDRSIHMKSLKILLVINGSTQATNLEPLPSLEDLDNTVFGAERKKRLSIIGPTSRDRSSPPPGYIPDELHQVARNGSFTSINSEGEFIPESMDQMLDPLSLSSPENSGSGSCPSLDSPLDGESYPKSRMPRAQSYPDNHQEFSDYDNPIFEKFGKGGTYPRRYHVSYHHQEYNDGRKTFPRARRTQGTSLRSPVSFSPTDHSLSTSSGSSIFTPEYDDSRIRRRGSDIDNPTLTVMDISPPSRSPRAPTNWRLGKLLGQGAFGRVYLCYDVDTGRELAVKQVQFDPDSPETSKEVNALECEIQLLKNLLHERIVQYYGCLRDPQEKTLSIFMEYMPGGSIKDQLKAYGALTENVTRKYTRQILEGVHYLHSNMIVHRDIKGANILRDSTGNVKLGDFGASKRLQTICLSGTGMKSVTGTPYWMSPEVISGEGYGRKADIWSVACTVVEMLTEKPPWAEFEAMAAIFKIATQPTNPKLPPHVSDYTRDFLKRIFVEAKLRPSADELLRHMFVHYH
Serine/threonine-protein kinase tousled-like 2 (Homo sapiens), sequence (Q86UE8 whole entry, looked up): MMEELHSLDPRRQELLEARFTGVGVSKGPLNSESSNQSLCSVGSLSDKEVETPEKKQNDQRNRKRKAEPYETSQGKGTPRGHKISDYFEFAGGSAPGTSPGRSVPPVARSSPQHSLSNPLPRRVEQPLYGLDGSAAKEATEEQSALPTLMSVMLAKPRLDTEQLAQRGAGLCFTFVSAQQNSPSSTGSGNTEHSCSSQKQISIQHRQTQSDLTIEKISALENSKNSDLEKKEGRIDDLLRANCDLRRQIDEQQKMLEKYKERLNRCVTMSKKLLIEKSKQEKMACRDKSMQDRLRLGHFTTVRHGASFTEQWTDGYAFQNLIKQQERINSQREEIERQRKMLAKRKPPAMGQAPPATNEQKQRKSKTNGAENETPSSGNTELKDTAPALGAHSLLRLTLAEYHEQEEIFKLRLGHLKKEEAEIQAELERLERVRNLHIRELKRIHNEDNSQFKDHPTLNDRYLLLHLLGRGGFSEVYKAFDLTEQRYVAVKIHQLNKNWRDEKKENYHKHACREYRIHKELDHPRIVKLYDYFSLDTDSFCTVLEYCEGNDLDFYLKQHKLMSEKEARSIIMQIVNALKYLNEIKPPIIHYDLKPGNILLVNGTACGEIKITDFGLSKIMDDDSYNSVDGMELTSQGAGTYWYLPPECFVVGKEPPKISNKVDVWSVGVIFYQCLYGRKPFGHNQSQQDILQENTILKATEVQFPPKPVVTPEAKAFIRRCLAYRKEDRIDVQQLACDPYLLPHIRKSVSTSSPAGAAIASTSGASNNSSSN
5-hydroxytryptamine receptor 2B, sequence (P41595 whole entry): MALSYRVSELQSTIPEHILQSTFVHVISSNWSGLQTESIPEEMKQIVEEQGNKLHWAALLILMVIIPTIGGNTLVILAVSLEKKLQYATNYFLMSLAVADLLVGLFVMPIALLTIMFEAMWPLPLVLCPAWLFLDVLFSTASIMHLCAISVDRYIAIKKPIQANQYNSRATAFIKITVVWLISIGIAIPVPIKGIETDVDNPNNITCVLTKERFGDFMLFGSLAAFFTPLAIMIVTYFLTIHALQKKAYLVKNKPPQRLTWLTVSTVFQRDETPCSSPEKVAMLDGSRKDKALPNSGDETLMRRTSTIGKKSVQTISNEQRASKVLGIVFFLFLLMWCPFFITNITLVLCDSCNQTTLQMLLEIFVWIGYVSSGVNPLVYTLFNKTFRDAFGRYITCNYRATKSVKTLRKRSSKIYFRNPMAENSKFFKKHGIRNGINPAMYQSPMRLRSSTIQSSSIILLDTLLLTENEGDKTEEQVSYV
Serine/threonine-protein kinase Nek6 (Homo sapiens), sequence (Q9HC98 whole entry, the tested form may be a part): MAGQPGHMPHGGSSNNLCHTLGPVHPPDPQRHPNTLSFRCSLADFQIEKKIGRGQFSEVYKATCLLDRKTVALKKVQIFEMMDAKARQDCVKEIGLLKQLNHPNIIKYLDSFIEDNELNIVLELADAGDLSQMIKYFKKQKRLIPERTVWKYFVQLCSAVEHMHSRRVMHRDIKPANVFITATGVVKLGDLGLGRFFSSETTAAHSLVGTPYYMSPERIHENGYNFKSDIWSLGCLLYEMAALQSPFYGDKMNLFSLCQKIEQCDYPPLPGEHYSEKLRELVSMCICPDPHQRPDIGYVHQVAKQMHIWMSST
Serine/threonine-protein kinase TAO3 (Homo sapiens), sequence (Q9H2K8 whole entry): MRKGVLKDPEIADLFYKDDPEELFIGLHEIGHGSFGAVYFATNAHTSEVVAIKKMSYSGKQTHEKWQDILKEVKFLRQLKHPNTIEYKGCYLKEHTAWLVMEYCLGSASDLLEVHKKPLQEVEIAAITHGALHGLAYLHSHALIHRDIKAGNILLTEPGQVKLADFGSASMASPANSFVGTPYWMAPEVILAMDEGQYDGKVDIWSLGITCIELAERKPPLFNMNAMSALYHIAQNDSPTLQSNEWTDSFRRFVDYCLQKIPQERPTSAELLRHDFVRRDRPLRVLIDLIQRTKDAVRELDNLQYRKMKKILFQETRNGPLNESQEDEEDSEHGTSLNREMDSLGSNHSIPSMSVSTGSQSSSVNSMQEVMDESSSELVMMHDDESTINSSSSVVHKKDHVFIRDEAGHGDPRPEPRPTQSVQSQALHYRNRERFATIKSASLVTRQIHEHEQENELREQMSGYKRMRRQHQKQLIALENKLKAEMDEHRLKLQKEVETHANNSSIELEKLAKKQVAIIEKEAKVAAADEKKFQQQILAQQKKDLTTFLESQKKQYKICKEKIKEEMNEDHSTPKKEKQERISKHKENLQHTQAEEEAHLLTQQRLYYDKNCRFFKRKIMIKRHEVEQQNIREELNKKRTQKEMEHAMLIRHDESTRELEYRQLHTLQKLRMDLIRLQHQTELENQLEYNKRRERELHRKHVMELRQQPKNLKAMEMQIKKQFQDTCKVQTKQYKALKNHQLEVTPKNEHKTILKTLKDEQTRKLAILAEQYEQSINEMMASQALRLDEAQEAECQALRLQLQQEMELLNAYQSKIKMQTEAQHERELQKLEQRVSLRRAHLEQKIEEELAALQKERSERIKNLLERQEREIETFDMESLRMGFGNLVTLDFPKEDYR

COc1cccc(CNC(=O)c2nc3scc(COCc4ccc(C(=O)O)cc4)c3c(=O)[nH]2)c1 [T-26c]
inactive: residual activity [1] 100% | residual activity [2] 99.9% | residual activity [3] 100% | residual activity [4] 58.4% | inhibition [5] 6.87% | residual activity [6] 83% | residual activity [7] 85.7% | residual activity [8] 100% | residual activity [9] 77.9% | inhibition [10] -9.07% | residual activity [11] 65.5% | residual activity [12] 59.9% | residual activity [13] 100% | inhibition [14] 17.2% | residual activity [15] 85.2% | residual activity [16] 73.2% | residual activity [17] 88.4% | residual activity [18] 86.1% | residual activity [19] 89.4% | residual activity [20] 100% | residual activity [21] 100% | residual activity [22] 100% | residual activity [23] 72.3% | residual activity [24] 72.4% | residual activity [25] 87.8% | residual activity [26] 100% | residual activity [27] 99.8% | residual activity [28] 92% | residual activity [29] 71% | residual activity [30] 100% | inhibition [31] 19% | residual activity [32] 100% | residual activity [33] 54.1% | residual activity [34] 100% | residual activity [35] 86.4% | residual activity [36] 72.2% | residual activity [37] 69.5% | residual activity [38] 100% | residual activity [39] 100% | residual activity [40] 100% | residual activity [41] 100% | residual activity [42] 67% | residual activity [43] 100%
